Assay: Particle size measurement by Malvern Particle Size Analyzer (Mastersizer-Hydro 2000 S M)
Type: physicochemical
Conditions: 1 g in 100 ml dispersant medium; prothioconazole prepared according to Example 3
Procedure: Particle Size Measurement by Malvern Particle Size Analyzer
Sample preparation and method of analysis: 1 g of Prothioconazole was taken in 100 ml dispersant medium. The content was mixed well and analyzed in Malvern Mastersizer-Hydro 2000 S M.

For OC(Cc1ccccc1Cl)(Cn1ncnc1S)C1(Cl)CC1 (centres unmarked) [Prothioconazole, 2-(1-chloro-cyclopropyl)-1-(2-chlorophenyl)-3-(5-mercapto-1,2,4-triazol-1-yl)-propan-2-ol], the “d (0.5) particle size (volume distribution)” value was 202.967 um and the “d (0.9) particle size (volume distribution)” value was 367.723 um.
